Reference: ChEMBL document CHEMBL5370532, “Selective Estrogen receptor degraders (SERDs) for the treatment of breast cancer: An overview” (Eur J Med Chem, 2023)
One block for each molecule: values may come before it.

Key:
[1] = system: MCF7; assay: Antiproliferative activity against 17beta-estradiol stimulated human MCF7 cells assessed as inhibition of cell growth incubated for 5 to 7 days by fluorescence based assay; assay type: functional
[2] = system: MCF7; assay: Antiproliferative activity against human MCF7 cells assessed as inhibition of cell growth incubated for 48 hrs by MTT assay; assay type: functional, cell-based; details: MCF7, 48 h
[3] = system: Ishikawa; assay: Antiproliferative activity against human Ishikawa cells assessed as inhibition of cell growth incubated for 48 hrs by MTT assay; assay type: functional, cell-based
[4] = system: MCF7; assay: Antiproliferative activity against human MCF7 cells assessed as inhibition of cell growth incubated for 48 hrs by CCK-8 assay; assay type: functional, cell-based; details: MCF7, 48 h
[5] = In vivo antagonist activity against E2-mediated uterine stimulation in Sprague-Dawley rat administered orally or subcutaneously once daily for 3 days; assay type: functional, organism-based
[6] = molecular target: Estrogen receptor beta (Homo sapiens, UniProt Q92731); assay: Inhibition of ERbeta (unknown origin) incubated for 4 hrs by fluorescence polarization assay
[7] = Downregulation of ER expression in human MCF7 cells incubated for 48 hrs by ELISA; assay type: functional, cell-based; details: MCF7, 48 h
[8] = Cmax in Sprague-Dawley rat at 10 mg/kg, po via gavage for 2 hrs by UHPLC analysis; assay type: ADME, organism-based; set-up: dose 10 mg/kg, time 2 hrs, route po; details: in vivo
[9] = Half life in Sprague-Dawley rat at 10 mg/kg, po via gavage for 2 hrs by UHPLC analysis; assay type: ADME, organism-based; details: in vivo
[10] = Observed AUC (0 to infinity) in Sprague-Dawley rat at 10 mg/kg, po via gavage for 2 hrs by UHPLC analysis; assay type: ADME, organism-based; set-up: dose 10 mg/kg, time 2 hrs, route po; details: in vivo

Estrogen receptor beta, sequence (Q92731 whole entry): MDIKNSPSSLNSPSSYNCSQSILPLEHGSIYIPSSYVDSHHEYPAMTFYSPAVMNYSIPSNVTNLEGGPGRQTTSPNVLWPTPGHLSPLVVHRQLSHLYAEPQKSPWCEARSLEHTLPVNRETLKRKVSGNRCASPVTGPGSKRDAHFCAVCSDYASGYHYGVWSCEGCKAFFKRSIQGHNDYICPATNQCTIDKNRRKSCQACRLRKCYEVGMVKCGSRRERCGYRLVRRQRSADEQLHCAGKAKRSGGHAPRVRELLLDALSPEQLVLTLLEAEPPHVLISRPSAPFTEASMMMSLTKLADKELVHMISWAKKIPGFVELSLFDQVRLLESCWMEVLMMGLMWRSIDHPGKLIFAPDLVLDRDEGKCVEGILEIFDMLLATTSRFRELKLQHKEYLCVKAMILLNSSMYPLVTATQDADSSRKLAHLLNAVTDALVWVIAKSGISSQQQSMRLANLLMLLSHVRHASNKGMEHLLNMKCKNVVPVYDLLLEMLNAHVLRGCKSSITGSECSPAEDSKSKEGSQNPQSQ

IC50 [1]: 7.2 nM
Structure (SMILES): CC1=C(c2ccc(O)cc2)[C@H](c2ccc(OCCN3CC[C@@H](C)C3)cc2)Oc2cc(O)ccc21

IC50 [4]: 800 nM
Structure (SMILES): COc1ccc(C(=O)C2=C(Oc3ccc(/C=C/C(=O)O)cc3)c3ccc(O)cc3OC2)cc1

EC50 [5]: 0.3 mg/kg
IC50 [6]: 870 nM
EC50 [7]: 0.6 nM
Structure (SMILES): CCNCCc1ccc(CN(CC)c2cc(OC)ccc2[C@@H]2CCc3cc(O)ccc3C2)cc1 [ELACESTRANT]

The next lines start with the molecule.

Structure (SMILES): O=C(/C=C\c1ccc(-c2nc(-c3ccc(O)cc3)nc(-c3ccc(O)cc3)n2)cc1)NCCCO
IC50 [2]: 3150 nM
IC50 [3]: 3110 nM

Structure (SMILES): C[C@]12CC[C@@H]3c4ccc(B(O)O)cc4C[C@@H](CCCCCCCCC[S+]([O-])CCCC(F)(F)C(F)(F)F)[C@H]3[C@@H]1CC[C@@H]2O (stereo not given in full) [ZB-716]
Cmax [8]: 158 ng/mL
half-life [9]: 17 h
AUC(0-inf) [10]: 1450 ng·h/mL
